Assay results from BindingDB's records for doi:10.1021/jm500853v (University of Hawaii At Hilo, 2014).
pIC50: −log10 of the molar value.

Biological target: DNA gyrase A/A/B/B tetramer (Escherichia coli (strain K12), UniProt P0AES4+P0AES6)
Assay: Inhibition of Escherichia coli DNA gyrase assessed as supercoiled plasmid DNA formation after 30 mins by electrophoretic analysis

Structure (SMILES) | pIC50
C=CCOc1ccccc1/C=C/C(=O)c1ccc(O)cc1O | 3.30
CC1(C)C2CC=C(/C=C/C(=O)c3ccc(O)cc3O)C1C2 (stereo not drawn) | 3.60
CC[C@H](C)C(=O)c1c(O)cc(O)cc1OC/C=C(\C)CCC=C(C)C [Olympicin A] | 3.30
